Measurements as given in patent US20230339834A1, “CHLORINATED FLUOROAROMATICS AND METHODS OF USING SAME” (3M INNOVATIVE PROPERTIES COMPANY, priority 2019, published 2023).

What was measured:
[1] = type: physicochemical
Procedure: The boiling points reported in Table 1 were determined using the procedures outlined in ASTM E 1719-97 “Standard Test Method for Vapor Pressure of Liquids by Ebulliometry.” First, vapor pressure was measured, and then the boiling point was calculated as described in section 10 of ASTM method […]-97.

[2] = Dielectric constant (ASTM D150-11, broadband dielectric spectrometer); type: physicochemical
Procedure: Dielectric constants were measured using an Alpha-A High Temperature Broadband Dielectric Spectrometer (Novocontrol Technologies, Montabaur, Germany) in accordance with ASTM D150-11, “Standard Test Methods for AC Loss Characteristics and Permittivity (Dielectric Constant) of Solid Electrical Insulation.” The parallel plate electrode configuration was selected for this measurement. The sample cell of parallel plates, an Agilent 16452A liquid test fixture consisting of 38 mm diameter parallel plates (Keysight Technologies, Santa Rosa, CA, US) was interfaced to the Alpha-A mainframe while utilizing the ZG2 Dielectric/Impedance General Purpose Interface available from Novocontrol Technologies. Each sample was prepared between parallel plate electrodes with a spacing, d, (typically, d=1 mm) and the complex permittivity (dielectric constant and loss) were evaluated from the phase sensitive measurement of the electrodes voltage difference (Vs) and current (Is). Frequency domain measurements were carried out at discrete frequencies from 0.00001 Hz to 1 MHz. Impedances from 10 milliohms up to 1×10^14 ohms were measured up to a maximum of 4.2 volts AC. For this experiment, however, a fixed AC voltage of 1.0 volts was used. The DC conductivity (the inverse of volume resistivity) can also be extracted from an optimized broadband dielectric relaxation fit function that contains at least one term of the low frequency Havrrilak Negami dielectric relaxation function and one separate frequency dependent conductivity term.

[3] = Liquid dielectric breakdown strength (ASTM D877-87); type: physicochemical; settings: 2.5 mm gap, 60 Hz
Procedure: The liquid dielectric breakdown strength measurements were performed in accordance with ASTM […]-87(1995), “Standard Test Method for Dielectric Breakdown Voltage of Insulating Liquids.” Disk electrodes 25mm in diameter, with 2.5 mm (0.10'') spacing between the electrodes, were utilized with a Phenix Technologies Model LD 60 that is specifically designed for testing in the 7-60 kV, 60 Hz (higher voltage) breakdown range. For this experiment, a frequency of 60 Hz and a ramp rate of 500 volts per second were utilized, as is typical.

[4] = Kinematic viscosity (ASTM D445-94e1); type: physicochemical
Procedure: Kinematic viscosity was determined in accordance with ASTM D445-94e1 “Standard Test Method for Kinematic Viscosity of Transparent and Opaque Liquids (the Calculation of Dynamic Viscosity)”, except the bath temperature was controlled to ±0.1° C., using a ViscoSystem AVS 350 viscosity timer (Schott Instruments GmbH, Hattenbergstraße 10 55122 Mainz Germany) and Hagenbach-corrected 545-03, 545-13 or 545-20 Ubbelohde viscometers (Cannon Instruments Company, Box 812, State College, PA). For temperatures below 0° C., a Lawler temperature control bath was used.

[5] = Density (DDM 2911 plus Automatic Density Meter); type: physicochemical
Procedure: Density was measured using DDM 2911 plus Automatic Density Meter. Before measurement, the fluid was briefly degassed in the syringe by stoppering the syringe tip and pulling on the plunger to release bubbles.

[6] = Flash point, small scale closed cup (ASTM D-3278-96 e-1); type: physicochemical; settings: no flash point = non-flammable
[7] = Log KOW octanol/water partition coefficient by HPLC (OECD 117); type: physicochemical; settings: HPLC method
Procedure: Values of Log KOW (octanol/water partition coefficients) were determined by HPLC using the method described in Organization for Economic Cooperation and Development (OECD) Test Method 117, “Partition Coefficient (n-octanol/water), HPLC Method.”

[8] = type: physicochemical; settings: 200±2° C., 31.5 days, sealed borosilicate tube
Procedure: To evaluate thermal stability, a flame-sealed borosilicate glass tube (50 mm outer diameter, 0.4 mm wall thickness) containing Example 1 [1.0 g, isomeric mixture of 4-Cl(C6H4)O(C9F17)] was completely submerged in a temperature-controlled oil bath at 200±2° C. for 31.5 days.

SMILES | Boiling Point [1] [°C] | Boiling point above non-chlorinated analog [1] | Dielectric Constant @ 1 kHz [2] | Dielectric strength [3] [kV] | Viscosity at 0° C. [4] [cSt] | Density at 25° C. [5] [g/mL] | Flash Point [6] | Log Kow [7] | 4-Cl(C6H4)O(C9F17) isomers by GC-FID, before and after heating [8] [%]
FC(F)(F)C(=C(Oc1ccc(Cl)cc1)C(F)(F)C(F)(F)F)C(F)(F)F [Ex. 2, 1-chloro-4-((1,1,1,4,4,5,5,5-octafluoro-2-(trifluoromethyl)pent-2-en-3-yl)oxy)benzene] | 193 | at least 22 °C | 2.76 | 50.7 | 8.4 | 1.58 | None |  | 
F/C(=C(/C(F)(F)F)C(F)(Oc1ccc(Cl)cc1)C(F)(F)C(F)(F)F)C(F)(C(F)(F)F)C(F)(F)F (centres unmarked) [Ex. 1, (E)-1-chloro-4-((1,1,1,2,2,3,5,6,7,7,7-undecafluoro-4,6-bis(trifluoromethyl)hept-4-en-3-yl)oxy)benzene] | 223 | at least 22 °C | 2.57 | 46.6 | 24.1 | 1.65 | None | >6.4 | 99.9±0.1
F/C(=C(/C(F)(F)F)C(F)(Oc1cc(Cl)cc(Cl)c1)C(F)(F)C(F)(F)F)C(F)(C(F)(F)F)C(F)(F)F (centres unmarked) [Ex. 3, (E)-1,3-dichloro-5-((1,1,1,2,2,3,5,6,7,7,7-undecafluoro-4,6-bis(trifluoromethyl)hept-4-en-3-yl)oxy)benzene] | 237 | 35 °C | 2.54 |  | 40.8 | 1.70 | None |  | 
F/C(=C(/C(F)(F)F)C(F)(Oc1ccc(F)cc1)C(F)(F)C(F)(F)F)C(F)(C(F)(F)F)C(F)(F)F (centres unmarked) [CE3, (E)-1-fluoro-4-((1,1,1,2,2,3,5,6,7,7,7-undecafluoro-4,6-bis(trifluoromethyl)hept-4-en-3-yl)oxy)benzene] | 206 | 5 °C | 2.63 | 38.1 | 11.8 | 1.68 | None | >6.4 | 
FC(F)(F)C(=C(Oc1ccccc1)C(F)(F)C(F)(F)F)C(F)(F)F [CE2] | 169 |  | 5.16 | 31.1 | 3.6 | 1.51 | None | 5.5 | 
F/C(=C(/C(F)(F)F)C(F)(Oc1ccccc1)C(F)(F)C(F)(F)F)C(F)(C(F)(F)F)C(F)(F)F (centres unmarked) [CE1, (E)-((1,1,1,2,2,3,5,6,7,7,7-Undecafluoro-4,6-bis(trifluoromethyl)hept-4-en-3-yl)oxy)benzene] | 201 |  | 4.42 | 38.1 | 8.7 | 1.62 | None | >6.4 | 
